{
  "source": "patent US20060205679A1",
  "about": "“Topical and oral formulations of cardiac glycosides for treating skin diseases” (Azaya Therapeutics, Inc., priority 2004, published 2006)",
  "key": {"[1]": {"tested_on": "cultered cancer cell lines", "settings": "cited from earlier work"}, "[2]": {"tested_on": "human malignant cell lines", "settings": "rapidly proliferating normal cells not affected; cited from earlier work"}, "[3]": {"tested_on": "primary cultures of tumor cells from patients and a human cell line panel", "settings": "cited from earlier work"}, "[4]": {"tested_on": "androgen independent human prostate cancer cell lines", "settings": "in-vitro; cited from earlier work"}, "[5]": {"settings": "in 50 ml of 9.6% solution of hydroxypropyl-β-cyclodextrin, 70 to 80° C.", "method": "200 mg of oleandrin was weighed and placed in a sterile test tube. The oleandrin was dissolved in 3 to 5 mL of purified absolute ethanol. […] The ethanolic solution of oleandrin was slowly added to the beaker with stirring. […] The solution was sterile-filtered through a 0.22 μm filter. The solution was frozen below −40° C. and lyophilized.\n500 mg of digitoxin was weighed and placed in a sterile test tube. […] The ethanolic solution of digitoxin was slowly added to the beaker with stirring. […] The solution was sterile-filtered through a 0.22 μm filter. The solution was frozen below −40° C. and lyophilized.\n200 mg of proscillaridin-A was weighed and placed in a sterile test tube and was dissolved in 5 to 10 mL of purified absolute ethanol. […] The ethanolic solution of proscillaridin-A was slowly added to the beaker with stirring. […] The solution was sterile filtered through a 0.22 μm filter. The solution was frozen below −40° C. and lyophilized."}, "[6]": {"tested_on": "FGF-2 release from PC3 cells", "settings": "oleandrin 0.1 ng/mL; cited from earlier work"}, "[7]": {"tested_on": "FGF-2 release from DU145 cells", "settings": "oleandrin 0.1 ng/mL; cited from earlier work"}, "human cancer cells": {"tested_on": "human cancer cells", "settings": "cited from earlier work"}, "murine cancer cells": {"tested_on": "murine cancer cells", "settings": "cited from earlier work"}, "NF-κB": {"tested_on": "NF-κB", "settings": "cited from earlier work"}, "AP-1": {"tested_on": "AP-1", "settings": "cited from earlier work"}, "[8]": {"tested_on": "c-Jun NH2-terminal kinase", "settings": "cited from earlier work"}, "[9]": {"settings": "cited from earlier work"}},
  "data": [
    {"smiles": "CO[C@@H]1C[C@H](O[C@H]2CC[C@@]3(C)[C@H](CC[C@@]45O[C@@]46CC[C@H](C4=CC(=O)OC4)[C@@]6(C)CC[C@H]35)C2)O[C@H](C)[C@@H]1O", "note": "[adynerin]", "values": [
      {"measurement": "anti-cancer activity", "setting": "[1]", "value": "significant anti-cancer activity"}
    ]},
    {"smiles": "C[C@H]1O[C@@H](O[C@H]2[C@@H](O)C[C@H](O[C@H]3[C@@H](O)C[C@H](O[C@H]4CC[C@@]5(C)[C@H](CC[C@@H]6[C@@H]5CC[C@]5(C)[C@@H](C7=CC(=O)OC7)CC[C@]65O)C4)O[C@@H]3C)O[C@@H]2C)C[C@H](O)[C@@H]1O", "note": "[digitoxin]", "values": [
      {"measurement": "growth and apoptosis at non-toxic concentrations", "setting": "[2]", "value": "inhibit growth and induce apoptosis"}
    ]},
    {"smiles": "C[C@H]1O[C@@H](O[C@H]2[C@@H](O)C[C@H](O[C@H]3[C@@H](O)C[C@H](O[C@H]4CC[C@@]5(C)[C@H](CC[C@@H]6[C@@H]5C[C@@H](O)[C@]5(C)[C@@H](C7=CC(=O)OC7)CC[C@]65O)C4)O[C@@H]3C)O[C@@H]2C)C[C@H](O)[C@@H]1O", "note": "[digoxin]", "values": [
      {"measurement": "selective toxicity against solid or hematological tumor cells from patients", "setting": "[3]", "value": "selective toxicity against solid tumor cells"},
      {"measurement": "growth and apoptosis at non-toxic concentrations", "setting": "[2]", "value": "inhibit growth and induce apoptosis"},
      {"measurement": "induction of apoptosis", "setting": "[4]", "value": "induce apoptosis"}
    ]},
    {"smiles": "CO[C@H]1C[C@H](O[C@H]2CC[C@@]3(C)[C@H](CC[C@@H]4[C@@H]3CC[C@]3(C)[C@@H](C5=CC(=O)OC5)[C@@H](OC(C)=O)C[C@]43O)C2)O[C@@H](C)[C@@H]1O", "note": "[oleandrin, 16β-acetoxy-3β-[(2,6 dideoxy-3-0-methyl-α2-L-arabino-hexopyranosyl)oxy]-14-hydroxy-5β, 14β-card-20(22)-enolide]", "values": [
      {"measurement": "amount effectively solubilized", "setting": "[5]", "value": 200, "unit": "mg"},
      {"measurement": "inhibition of FGF-2 release", "setting": "[6]", "value": 45.7, "unit": "%"},
      {"measurement": "inhibition of FGF-2 release", "setting": "[7]", "value": 49.9, "unit": "%"},
      {"measurement": "anti-cancer activity", "setting": "[1]", "value": "significant anti-cancer activity"},
      {"measurement": "ability to kill human cancer cells", "setting": "human cancer cells", "value": "able to kill"},
      {"measurement": "toxicity to murine cancer cells", "setting": "murine cancer cells", "value": "not toxic"},
      {"measurement": "induction of apoptosis", "setting": "[4]", "value": "induce apoptosis"},
      {"measurement": "NF-κB activation induced by phorbol esters and bacterial lipopolysaccharide", "setting": "NF-κB", "value": "blocked"},
      {"measurement": "NF-κB-dependent reporter gene transcription activated by TNF", "setting": "NF-κB", "value": "suppressed"},
      {"measurement": "TNF induced activation of NF-κB", "setting": "NF-κB; concentration and time dependent", "value": "blocked"},
      {"measurement": "AP-1 activation induced by TNF and other stimuli", "setting": "AP-1", "value": "blocked"},
      {"measurement": "TNF induced activation of c-Jun NH2-terminal kinase", "setting": "[8]", "value": "inhibited"},
      {"measurement": "solubility in organic solvents", "setting": "[9]; ethanol and chloroform", "value": "soluble"},
      {"measurement": "stability with respect to heat", "setting": "[9]; heat", "value": "heat stable"},
      {"measurement": "stability with respect to light", "setting": "[9]; light", "value": "unstable"},
      {"measurement": "solubility in water", "setting": "[9]; water", "value": "almost insoluble"}
    ]},
    {"smiles": "C[C@@H]1O[C@@H](O[C@H]2C[C@@H](O)[C@]3(CO)[C@H]4[C@H](O)C[C@]5(C)[C@@H](C6=CC(=O)OC6)CC[C@]5(O)[C@@H]4CC[C@]3(O)C2)[C@H](O)[C@H](O)[C@H]1O", "note": "[ouabain]", "values": [
      {"measurement": "induction of apoptosis", "setting": "[4]", "value": "induce apoptosis"}
    ]},
    {"smiles": "C[C@@H]1O[C@@H](O[C@@H]2C=C3CC[C@@H]4[C@H](CC[C@]5(C)[C@@H](c6ccc(=O)oc6)CC[C@]45O)[C@@]3(C)CC2)[C@H](O)[C@H](O)[C@H]1O", "note": "[proscillaridin-A, Proscillaridin A, reference compound]", "values": [
      {"measurement": "amount effectively solubilized", "setting": "[5]", "value": 200, "unit": "mg"},
      {"measurement": "selective toxicity against solid or hematological tumor cells from patients", "setting": "[3]", "value": "no selective toxicity"}
    ]},
    {"smiles": "C[C@H]1[C@H](C)CC[C@]2(C(=O)O)CC[C@]3(C)C(=CC[C@@H]4[C@@]5(C)CC[C@H](O)C(C)(C)[C@@H]5CC[C@]43C)[C@H]12", "note": "[ursolic acid]", "values": [
      {"measurement": "anti-cancer activity", "setting": "[1]", "value": "significant anti-cancer activity"}
    ]}
  ]
}
